Source: patent EP0423373A1, “STYRENE DERIVATIVE AND METHOD OF PRODUCTION THEREOF, POLYSTYRENE DERIVATIVE PRODUCED THEREFROM AND METHOD OF PRODUCING THE SAME, AND ULTRAVIOLET ABSORBENT AND COSMETICS CONTAINING SAID POLYSTYRENE DERIVATIVE AS ACTIVE INGREDIENT” (EARTH CHEMICAL CO., LTD., priority 1989, dated 1990)

test system: not listed separately; assay: Ultraviolet absorption spectrum; format: physicochemical; details: ethanol solution, 10 ppm, quartz cell, optical path 10 mm
Text: The wavelength at the maximum absorption (λ max) and the molar extinction coefficient (E) were found by measuring ultraviolet absorption spectrum of an ethanol solution of the sample having a concentration of 10 ppm in a quartz cell having an optical path of 10 mm by means of a spectrophotometer (UV-200S, made by SHIMADZU CORPORATION).

Row | SMILES | Molar extinction coefficient (ε) | Wavelength at the maximum absorption (λ max) [nm]
1 | C=Cc1ccc(C(=O)CC(=O)c2ccc(C(=O)OC)cc2)cc1 [4-methyoxycarbonyl-4'-vinyldibenzoylmethane] | 33,000 | 361
2 | C=Cc1ccc(CN(N=Cc2ccc(C(=O)O)cc2)C(=S)NC)cc1 [Example 1, p'-carboxybenzaidehyde 4-methyl-2-p-vinylbenzylthiosemicarbazone] | 33,000 | 331
3 | C=Cc1ccc(CNC(=S)N(C)N=Cc2ccc(C(=O)O)cc2)cc1 [Example 2, p'-carboxybenzaldehyde 2-methyl-4-P-vinylbenzylthiosemicarbazone] | 40,000 | 332
4 | C=Cc1ccc(CN(N=Cc2ccc(C=CC(=O)O)cc2)C(=S)NC)cc1 [Example 3, p'-carboxyvinylenebenzaldehyde 4-methyl-2-p-vinylbenzylthiosemicarbazone] | 60,000 | 348
5 | C=Cc1ccc(CN(N=Cc2ccc(C(=O)O)cc2)C(N)=O)cc1 [Example 4, p'-carboxybenzaldehyde 2-p-vinylbenzylsemicarbazone] | 29,000 | 306
6 | C=Cc1ccc(CN(N=Cc2ccc(C(=O)O)cc2)C(=O)NC)cc1 [Example 5, p'-carboxybenzaldehyde 4-methyl-2-p-vinylbenzylsemicarbazone] | 29,000 | 310
7 | C=Cc1ccc(CN(N=Cc2ccccc2)C(=S)NC)cc1 [Example 6, benzaldehyde 4-methyl-2-p-vinylbenzylthiosemicarbazone] | 33,000 | 317
8 | C=Cc1ccc(CN(N=Cc2ccc(C)cc2)C(=S)NC)cc1 [Example 7, p'-methylbenzaldehyde 4-methyl-2-p-vinylbenzylthiosemicarbazone] | 33,000 | 317
9 | C=Cc1ccc(CN(N=Cc2ccc(N(C)C)cc2)C(=S)NC)cc1 [Example 8, p'-dimethylaminobenzaldehyde 4-methyl-2-p-vinylbenzylthiosemicarbazone] | 38,000 | 358
10 | C=Cc1ccc(CN(N=Cc2ccc(Cl)cc2)C(=S)NC)cc1 [Example 9, p'-chlorobenzaldehyde 4-methyl-2-p-vinylbenzylthiosemicarbazone] | 41,000 | 318
11 | C=Cc1ccc(CN(N=Cc2ccc([N+](=O)[O-])cc2)C(=S)NC)cc1 [Example 10, p'-nitrobenzaldehyde 4-methyl-2-p-vinylbenzylthiosemicarbazone] | 36,000 | 359
12 | C=Cc1ccc(CN(N=Cc2ccco2)C(=S)NC)cc1 [Example 11, 2'-furylaldehyde 4-methyl-2-p-vinylbenzylthiosemicarbazone] | 34,000 | 321
13 | C=Cc1ccc(CN(N=Cc2cccs2)C(=S)NC)cc1 [Example 12, 2'-thienylaldehyde 4-methyl-2-p-vinylbenzylthiosemicarbazone] | 39,000 | 333
14 | C=Cc1ccc(CN(N=Cc2ccncc2)C(=S)NC)cc1 [Example 13, isonicotinic aldehyde 4-methyl-2-p-vinylbenzylthiosemicarbazone] | 36,000 | 325
15 | C=Cc1ccc(CN(N=CC=Cc2ccccc2)C(=S)NC)cc1 [Example 14, cinnamaldehyde 4-methyl-2-p-vinylbenzylthiosemicarbazone] | 46,000 | 335
16 | C=Cc1ccc(C(=O)CC(=O)c2ccc(C(=O)O)cc2)cc1 [Example 57, 4-carboxy-4'-vinyldibenzoylmethane] | 34,000 | 361

test system: skin of a quinea pig; assay: Percutaneous absorption, diffusion cell (Franz); format: in vitro ADME; details: 1 % aqueous solution of sodium salt, 33 C, 20 hours
Description: The skin of a quinea pig was peeled, washed with physiological saline and then set in a percutaneous absopriton apparatus which was made in accordance with the description in Franz, T. J, J. Invest, Dermotal 64 , 190, 1975, by means of a diffusion cell. The sample room was filled with […] of a 1 % aqueous solution of sodium salt of the obtained polystyrene derivative, and the acceptor was filled with physiological saline. After maintaining at 33 C for 20 hours while stirring with a magnetic stirrier, the physiological saline in the acceptor was taken out, and the ultraviolet absorbency was measured. As the result, when the polystyrene derivative was used, the absorption curve of the ultraviolet absorption spectrum was similar to that obtained when the physiological saline was solely used as a negative control. When a compound having a lower molecular weight (1 % aqueous solution of sodium salt of p-aminobenzoic acid) was used as a positive control, the compound was observed by the ultraviolet absorption spectrum corresponding to 95 ppm in connection.

Row | SMILES | compound observed in the acceptor by the ultraviolet absorption spectrum [ppm]
17 | Nc1ccc(C(=O)O)cc1 [p-aminobenzoic acid] | 95
